From patent US20160222430A1, “D-ALA-D-ALA-BASED DIPEPTIDES AS TOOLS FOR IMAGING PEPTIDOGLYCAN BIOSYNTHESIS” (INDIANA UNIVERSITY RESEARCH AND TECHNOLOGY CORPORATION, priority 2013, published 2016)
Read-outs that look alike come from different tables or passages of the source. Where a SMILES comes first, the peptide text is derived from it. [ ]: non-standard residue; d: D form.

Tests used:
E. coli ΔddlA ΔddlB = format: cell-based, Escherichia coli
B. subtilis cells = format: cell-based, Bacillus subtilis
E. coli cells = experiment: PG labeling of E. coli with dipeptide probes, click chemistry and epifluorescence microscopy; format: cell-based, Escherichia coli; settings: 0.5 mM, 45 min; clicked to Alexa Fluor 488 azide
[1] = test system: C. trachomatis serovar L2 strain 434/Bu; experiment: Labeling of chlamydial PG in infected L2 cells; format: cell-based, Chlamydia trachomatis; settings: grown for 18 h in the presence of antibiotic (DCS 294 μM or ampicillin 2.8 μM)
A. tumefaciens = experiment: Control experiment with fluorescent D-Ala and L-Ala in A. tumefaciens; format: cell-based, Agrobacterium tumefaciens
Method: Control experiments were carried out in A. tumefaciens, B. subtilis and E. coli with fluorescent D-Ala (D-HCC) and fluorescent L-Ala (L-HCC). […] This observation was true for all strains tested.

E. coli wt = format: cell-based, Escherichia coli; design: Growth rescue (culture density), E. coli wt: key: +++++: highest culture density achieved within a set; ++++: intermediate values, relative fractions of the highest culture density within a set; +++: intermediate values, relative fractions of the highest culture density within a set; ++: intermediate values, relative fractions of the highest culture density within a set; +: intermediate values, relative fractions of the highest culture density within a set; −: no bacterial growth
[2] = test system: C. trachomatis serovar L2 strain 434/Bu; experiment: DCS Chlamydia trachomatis plaque assay in L2 mouse fibroblast monolayers; format: cell-based; settings: DCS 294 μM
B. subtilis wt = format: cell-based, Bacillus subtilis; design: Growth rescue (culture density), B. subtilis wt: key: +++++: highest culture density achieved within a set; ++++: intermediate values, relative fractions of the highest culture density within a set; +++: intermediate values, relative fractions of the highest culture density within a set; ++: intermediate values, relative fractions of the highest culture density within a set; +: intermediate values, relative fractions of the highest culture density within a set; −: no bacterial growth
E. coli = experiment: FDAA/CDAA labeling of E. coli, fluorescence microscopy; format: cell-based, Escherichia coli; settings: 2%-8% of doubling time
Throughout, for Growth (culture density), B. subtilis wt: key: +++++: highest culture density achieved within a set; ++++: intermediate values, relative fractions of the highest culture density within a set; +++: intermediate values, relative fractions of the highest culture density within a set; ++: intermediate values, relative fractions of the highest culture density within a set; +: intermediate values, relative fractions of the highest culture density within a set; −: no bacterial growth.
Throughout, for Growth (culture density), E. coli wt: key: +++++: highest culture density achieved within a set; ++++: intermediate values, relative fractions of the highest culture density within a set; +++: intermediate values, relative fractions of the highest culture density within a set; ++: intermediate values, relative fractions of the highest culture density within a set; +: intermediate values, relative fractions of the highest culture density within a set; −: no bacterial growth.
Throughout, for Growth rescue (culture density), E. coli Δddla, Δddlb: key: +++++: highest culture density achieved within a set; ++++: intermediate values, relative fractions of the highest culture density within a set; +++: intermediate values, relative fractions of the highest culture density within a set; ++: intermediate values, relative fractions of the highest culture density within a set; +: intermediate values, relative fractions of the highest culture density within a set; −: no bacterial growth.

## C#CN[C@@H](C)C(=O)N[C@@H](C)C(=O)O [ELA-LA, ethynyl-L-alanyl-L-alanine]
E. coli ΔddlA ΔddlB; MM + 0.8 mM, initial inoculum OD600 = 0.025
  Growth rescue (culture density), E. coli Δddla, Δddlb: −
E. coli ΔddlA ΔddlB; MM + DA-DA (25 μM) + 0.80 mM of the analog, initial inoculum OD600 = 0.0025
  Growth rescue (culture density), E. coli Δddla, Δddlb: +
B. subtilis cells
  PG labeling signal, L-enantiomer control: No labeling was observed
E. coli cells
  PG labeling signal, L-enantiomer control: No labeling was observed

## CC1(C)S[C@@H]2[C@H](NC(=O)[C@H](N)c3ccccc3)C(=O)N2[C@H]1C(=O)O [ampicillin]
[1]
  Morphology of chlamydial RBs grown with antibiotic: inclusions contained enlarged, aberrant RBs

## N[C@@H](CNC(=O)c1cc2ccc(O)cc2oc1=O)C(=O)O [HALA]
A. tumefaciens
  Incorporation into the cell wall: only D-HCC was incorporated into the cell wall

## N[C@@H]1CONC1=O [DCS, D-cycloserine]
E. coli wt
  Growth (culture density), E. coli wt: −
[2]; no amino acid
  Plaque formation: −
B. subtilis wt
  Growth (culture density), B. subtilis wt: −
[1]
  Morphology of chlamydial RBs grown with antibiotic: inclusions contained enlarged, aberrant RBs

## C[C@@H](N)C(=O)O [D-Ala, D-alanine]
[2]; amino acid to DCS ratio 1:1
  Plaque formation: ++++
[2]; amino acid to DCS ratio 1:10
  Plaque formation: +++

## C[C@@H](N)C(=O)N[C@H](C)C(=O)O [DA-DA, D-alanyl-D-alanine] (H-[dA]-[dA]-OH)
E. coli wt
  Growth rescue (culture density), E. coli wt: ++
[2]; amino acid to DCS ratio 1:1
  Plaque formation: ++
[2]; amino acid to DCS ratio 10:1
  Plaque formation: +++
E. coli ΔddlA ΔddlB; MM (M9 + 0.2% glucose) + 25 μM, initial inoculum OD600 = 0.025
  Growth rescue (culture density), E. coli Δddla, Δddlb: ++
E. coli ΔddlA ΔddlB; MM + 25 μM, initial inoculum OD600 = 0.0025
  Growth rescue (culture density), E. coli Δddla, Δddlb: +
E. coli ΔddlA ΔddlB; MM + 200 μM, initial inoculum OD600 = 0.025
  Growth rescue (culture density), E. coli Δddla, Δddlb: +++++
B. subtilis wt
  Growth rescue (culture density), B. subtilis wt: ++++

## NC(CNC(=O)c1cc2ccc(O)cc2oc1=O)C(=O)O (stereo not drawn) [HADA]
E. coli
  Localization of signal after short labeling times: preferential localization of the signal at the septal plane of pre-divisional cells and in punctate patterns on the lateral walls of elongating cells
A. tumefaciens
  Incorporation into the cell wall: incorporated into the cell wall
